# Test results reported in US20260262643A1, “HERBICIDAL BENZOXAZINES” (FMC CORPORATION, priority 2022, published 2026).
# What was measured:
# sedge, umbrella = assay: Test D flooded paddy test; format: in vivo, Cyperus difformis; settings: 250 g ai/ha, applied to paddy water, visual rating after 13 to 14 days, scale 0 to 100 (0 no effect, 100 complete control)
# Summary of the method: (§1)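 Plants grown to the 2-leaf stage; pots flooded to 3 cm above soil at treatment and held at that depth throughout. Test compounds applied directly to the paddy water. After 13 to 14 days in a greenhouse, response was rated visually versus controls on a 0 (no effect) to 100 (complete control) scale.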
# pigweed, palmer [1] = assay: Test C preemergence; format: in vivo, Amaranthus palmeri; settings: 0 to 100 scale (0 no effect, 100 complete control); for Plant response rating, Pigweed, Palmer: Preemergence, 500 g ai/ha, visual rating after 10 days; for Pigweed, Palmer plant response rating: Test C, preemergence, 125 g ai/ha
# Summary of the method: (§2)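 Soil-applied (pre) and foliar (post, 1–2 leaf, 2–10 cm) sprays; surfactant-containing non-phytotoxic solvent vehicle; loam/sand substrate. Readout: visual % control at 10 d, greenhouse, versus untreated.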
# horseweed = assay: Test C postemergence; format: in vivo, Erigeron canadensis; settings: 10 days
# Summary of the method: as §2
# oat, wild [2] = assay: Test C preemergence; format: in vivo, Avena fatua; settings: 0 to 100 scale (0 no effect, 100 complete control); for Plant response rating, Oat, Wild: Preemergence, 500 g ai/ha, visual rating after 10 days; for Oat, Wild plant response rating: Test C, preemergence, 125 g ai/ha
# Summary of the method: as §2
# ryegrass, Italian [3] = assay: Test C preemergence; format: in vivo, Lolium multiflorum; settings: 0 to 100 scale (0 no effect, 100 complete control); for Plant response rating, Ryegrass, Italian: Preemergence, 500 g ai/ha, visual rating after 10 days; for Ryegrass, Italian plant response rating: Test C, preemergence, 125 g ai/ha
# Summary of the method: as §2
# rice = assay: Test D flooded paddy test; format: in vivo, Oryza sativa; settings: 250 g ai/ha, applied to paddy water, visual rating after 13 to 14 days, scale 0 to 100 (0 no effect, 100 complete control)
# Summary of the method: as §1
# barnyardgrass [4] = assay: Test C postemergence; format: in vivo, Echinochloa crusgalli; settings: 10 days
# Summary of the method: as §2
# kochia [5] = assay: Test C postemergence; format: in vivo, Bassia scoparia; settings: 10 days
# Summary of the method: as §2
# galium = assay: Test C postemergence; format: in vivo, Galium aparine; settings: 10 days
# Summary of the method: as §2
# ducksalad = assay: Test D flooded paddy test; format: in vivo, Heteranthera limosa; settings: 250 g ai/ha, applied to paddy water, visual rating after 13 to 14 days, scale 0 to 100 (0 no effect, 100 complete control)
# Summary of the method: as §1
# kochia [6] = assay: Test C preemergence; format: in vivo, Bassia scoparia; settings: 0 to 100 scale (0 no effect, 100 complete control); for Plant response rating, Kochia: Preemergence, 500 g ai/ha, visual rating after 10 days; for Kochia plant response rating: Test C, preemergence, 125 g ai/ha
# Summary of the method: as §2
# corn [7] = assay: Test C preemergence; format: in vivo, Zea mays; settings: 0 to 100 scale (0 no effect, 100 complete control); for Plant response rating, Corn: Preemergence, 500 g ai/ha, visual rating after 10 days; for Corn plant response rating: Test C, preemergence, 125 g ai/ha
# Summary of the method: as §2
# oat, wild [8] = assay: Test C postemergence; format: in vivo, Avena fatua; settings: 10 days
# Summary of the method: as §2
# green foxtail [9] = assay: Test C preemergence; format: in vivo, Setaria viridis; settings: 0 to 100 scale (0 no effect, 100 complete control); for Plant response rating, Foxtail, Green: Preemergence, 500 g ai/ha, visual rating after 10 days; for Foxtail, Green plant response rating: Test C, preemergence, 125 g ai/ha
# Summary of the method: as §2
# barnyardgrass [10] = assay: Test D flooded paddy test; format: in vivo, Echinochloa crus-galli; settings: 250 g ai/ha, applied to paddy water, visual rating after 13 to 14 days, scale 0 to 100 (0 no effect, 100 complete control)
# Summary of the method: as §1
# ryegrass, Italian [11] = assay: Test C postemergence; format: in vivo, Lolium multiflorum; settings: 10 days
# Summary of the method: as §2
# ragweed [12] = assay: Test C postemergence; format: in vivo, Ambrosia artemisiifolia; settings: 10 days
# Summary of the method: as §2
# barnyardgrass [13] = assay: Test C preemergence; format: in vivo, Echinochloa crusgalli; settings: 0 to 100 scale (0 no effect, 100 complete control); for Plant response rating, Barnyardgrass: Preemergence, 500 g ai/ha, visual rating after 10 days; for Barnyardgrass plant response rating: preemergence, 125 g ai/ha
# Summary of the method: as §2
# wheat [14] = assay: Test C preemergence; format: in vivo, Triticum aestivum; settings: 0 to 100 scale (0 no effect, 100 complete control); for Plant response rating, Wheat: Preemergence, 500 g ai/ha, visual rating after 10 days; for Wheat plant response rating: Test C, preemergence, 125 g ai/ha
# Summary of the method: as §2
# blackgrass [15] = assay: Test C preemergence; format: in vivo, Alopecurus myosuroides; settings: 0 to 100 scale (0 no effect, 100 complete control); for Plant response rating, Blackgrass: Preemergence, 500 g ai/ha, visual rating after 10 days; for Blackgrass plant response rating: Test C, preemergence, 125 g ai/ha
# Summary of the method: as §2
# green foxtail [16] = assay: Test C postemergence; format: in vivo, Setaria viridis; settings: 10 days
# Summary of the method: as §2
# pigweed, palmer [17] = assay: Test C postemergence; format: in vivo, Amaranthus palmeri; settings: 10 days
# Summary of the method: as §2
# soybean [18] = assay: Test C preemergence; format: in vivo, Glycine max; settings: 0 to 100 scale (0 no effect, 100 complete control); for Plant response rating, Soybean: Preemergence, 500 g ai/ha, visual rating after 10 days; for Soybean plant response rating: Test C, preemergence, 125 g ai/ha
# Summary of the method: as §2
# wheat [19] = assay: Test C postemergence; format: in vivo, Triticum aestivum; settings: 10 days
# Summary of the method: as §2
# ragweed [20] = assay: Test C preemergence; format: in vivo, Ambrosia artemisiifolia; settings: 0 to 100 scale (0 no effect, 100 complete control); for Plant response rating, Ragweed: Preemergence, 500 g ai/ha, visual rating after 10 days; for Ragweed plant response rating: Test C, preemergence, 125 g ai/ha
# Summary of the method: as §2
# corn [21] = assay: Test C postemergence; format: in vivo, Zea mays; settings: 10 days
# Summary of the method: as §2
# soybean [22] = assay: Test C postemergence; format: in vivo, Glycine max; settings: 10 days
# Summary of the method: as §2
# blackgrass [23] = assay: Test C postemergence; format: in vivo, Alopecurus myosuroides; settings: 10 days
# Summary of the method: as §2
# [24] = 125 g ai/ha, postemergence, 0 to 100 scale, 0 no effect, 100 complete control
# [25] = Postemergence, 500 g ai/ha, visual 0 to 100 scale (0 no effect, 100 complete control)
smiles,measurement,setting,value
COC[C@H]1CN(C(=O)c2cc(-n3cnc(C(C)(C)C)n3)ccc2C)c2cccc(Cl)c2O1 [Compound 264],"Plant response rating, Sedge, Umbrella (Flood)","sedge, umbrella",80
same,"Plant response rating, Pigweed, Palmer","pigweed, palmer [1]",100
same,"Pigweed, Palmer plant response rating","pigweed, palmer [1]",100
same,"Plant response rating, Horseweed",horseweed; [24],20
same,"Plant response rating, Horseweed",horseweed; [25],60
same,"Plant response rating, Oat, Wild","oat, wild [2]",90
same,"Oat, Wild plant response rating","oat, wild [2]",90
same,"Plant response rating, Ryegrass, Italian","ryegrass, Italian [3]",90
same,"Ryegrass, Italian plant response rating","ryegrass, Italian [3]",90
same,"Plant response rating, Rice (Flood)",rice,10
same,"Plant response rating, Barnyardgrass",barnyardgrass [4]; [24],50
same,"Plant response rating, Barnyardgrass",barnyardgrass [4]; [25],90
same,"Plant response rating, Kochia",kochia [5]; [24],80
same,"Plant response rating, Kochia",kochia [5]; [25],100
same,"Plant response rating, Galium",galium; [24],100
same,"Plant response rating, Galium",galium; [25],100
same,"Plant response rating, Ducksalad (Flood)",ducksalad,75
same,"Plant response rating, Kochia",kochia [6],100
same,Kochia plant response rating,kochia [6],90
same,"Plant response rating, Corn",corn [7],50
same,Corn plant response rating,corn [7],30
same,"Plant response rating, Oat, Wild","oat, wild [8]; [24]",10
same,"Plant response rating, Oat, Wild","oat, wild [8]; [25]",50
same,"Plant response rating, Foxtail, Green",green foxtail [9],100
same,"Foxtail, Green plant response rating",green foxtail [9],100
same,"Plant response rating, Barnyardgrass (Flood)",barnyardgrass [10],35
same,"Plant response rating, Ryegrass, Italian","ryegrass, Italian [11]; [24]",50
same,"Plant response rating, Ryegrass, Italian","ryegrass, Italian [11]; [25]",90
same,"Plant response rating, Ragweed",ragweed [12]; [24],80
same,"Plant response rating, Ragweed",ragweed [12]; [25],90
same,"Plant response rating, Barnyardgrass",barnyardgrass [13],100
same,Barnyardgrass plant response rating,barnyardgrass [13]; Test C,70
same,"Plant response rating, Wheat",wheat [14],60
same,Wheat plant response rating,wheat [14],0
same,"Plant response rating, Blackgrass",blackgrass [15],80
same,Blackgrass plant response rating,blackgrass [15],40
same,"Plant response rating, Foxtail, Green",green foxtail [16]; [24],20
same,"Plant response rating, Foxtail, Green",green foxtail [16]; [25],90
same,"Plant response rating, Pigweed, Palmer","pigweed, palmer [17]; [24]",90
same,"Plant response rating, Pigweed, Palmer","pigweed, palmer [17]; [25]",90
same,"Plant response rating, Soybean",soybean [18],80
same,Soybean plant response rating,soybean [18],90
same,"Plant response rating, Wheat",wheat [19]; [24],20
same,"Plant response rating, Wheat",wheat [19]; [25],30
same,"Plant response rating, Ragweed",ragweed [20],80
same,Ragweed plant response rating,ragweed [20],60
same,"Plant response rating, Corn",corn [21]; [24],30
same,"Plant response rating, Corn",corn [21]; [25],80
same,"Plant response rating, Soybean",soybean [22]; [24],100
same,"Plant response rating, Soybean",soybean [22]; [25],100
same,"Plant response rating, Blackgrass",blackgrass [23]; [24],40
same,"Plant response rating, Blackgrass",blackgrass [23]; [25],60
CC(C)c1ncn(-c2cc(OC(F)F)c(OC(F)F)c(C(=O)N3C[C@H](C)Oc4c(Cl)cccc43)c2)n1 [Compound 150],"Plant response rating, Sedge, Umbrella (Flood)","sedge, umbrella",0
same,"Plant response rating, Pigweed, Palmer","pigweed, palmer [1]",0
same,"Pigweed, Palmer plant response rating","pigweed, palmer [1]",0
same,"Plant response rating, Horseweed",horseweed; [24],0
same,"Plant response rating, Horseweed",horseweed; [25],0
same,"Plant response rating, Oat, Wild","oat, wild [2]",0
same,"Oat, Wild plant response rating","oat, wild [2]",0
same,"Plant response rating, Ryegrass, Italian","ryegrass, Italian [3]",0
same,"Ryegrass, Italian plant response rating","ryegrass, Italian [3]",0
same,"Plant response rating, Rice (Flood)",rice,0
same,"Plant response rating, Barnyardgrass",barnyardgrass [4]; [24],10
same,"Plant response rating, Barnyardgrass",barnyardgrass [4]; [25],10
same,"Plant response rating, Kochia",kochia [5]; [24],0
same,"Plant response rating, Kochia",kochia [5]; [25],20
same,"Plant response rating, Galium",galium; [24],0
same,"Plant response rating, Galium",galium; [25],0
same,"Plant response rating, Ducksalad (Flood)",ducksalad,0
same,"Plant response rating, Kochia",kochia [6],0
same,Kochia plant response rating,kochia [6],0
same,"Plant response rating, Corn",corn [7],0
same,Corn plant response rating,corn [7],0
same,"Plant response rating, Oat, Wild","oat, wild [8]; [24]",0
same,"Plant response rating, Oat, Wild","oat, wild [8]; [25]",0
same,"Plant response rating, Foxtail, Green",green foxtail [9],0
same,"Foxtail, Green plant response rating",green foxtail [9],0
same,"Plant response rating, Barnyardgrass (Flood)",barnyardgrass [10],0
same,"Plant response rating, Ryegrass, Italian","ryegrass, Italian [11]; [24]",0
same,"Plant response rating, Ryegrass, Italian","ryegrass, Italian [11]; [25]",0
same,"Plant response rating, Ragweed",ragweed [12]; [24],0
same,"Plant response rating, Ragweed",ragweed [12]; [25],0
same,Barnyardgrass plant response rating,barnyardgrass [13],0
same,"Plant response rating, Barnyardgrass",barnyardgrass [13],0
same,"Plant response rating, Wheat",wheat [14],0
same,Wheat plant response rating,wheat [14],0
same,"Plant response rating, Blackgrass",blackgrass [15],0
same,Blackgrass plant response rating,blackgrass [15],0
same,"Plant response rating, Foxtail, Green",green foxtail [16]; [24],0
same,"Plant response rating, Foxtail, Green",green foxtail [16]; [25],0
same,"Plant response rating, Pigweed, Palmer","pigweed, palmer [17]; [24]",0
same,"Plant response rating, Pigweed, Palmer","pigweed, palmer [17]; [25]",30
same,"Plant response rating, Soybean",soybean [18],0
same,Soybean plant response rating,soybean [18],0
same,"Plant response rating, Wheat",wheat [19]; [24],0
same,"Plant response rating, Wheat",wheat [19]; [25],0
same,"Plant response rating, Ragweed",ragweed [20],20
same,Ragweed plant response rating,ragweed [20],0
same,"Plant response rating, Corn",corn [21]; [24],0
same,"Plant response rating, Corn",corn [21]; [25],0
same,"Plant response rating, Soybean",soybean [22]; [24],20
same,"Plant response rating, Soybean",soybean [22]; [25],50
same,"Plant response rating, Blackgrass",blackgrass [23]; [24],0
same,"Plant response rating, Blackgrass",blackgrass [23]; [25],0
